Legend:
petunia leaf disks = test: Callus growth from petunia leaf disks on MS media with glyphosate; assay type: cell-based
Protocol: Leaf disks with diameters of 6 mm (1/4 inch) were taken from surface-sterilized petunia leaves. They were cultivated on MS104 agar medium for 2 days to promote partial cell wall formation at the wound surfaces. They were then submerged in a culture of A. tumefaciens cells containing both pMON546 and GV3111-SE which had been grown overnight in Luria broth at 28° C., and shaken gently. The cells were removed from the bacterial suspension, blotted dry, and incubated upside down on filter paper placed over "nurse" cultures of tobacco cells, as described in Horsch 1981. Afer 2 or 3 days, the disks were transferred to petri dishes containing MS media with 500 μg/ml carbenicillin and 0, 0.1, 0.25, or 0.5 mM glyphosate (sodium salt), with no nurse cultures.
Control tissue was created using A. tumefaciens cells containing the helper plasmid pGV3111-SE and a different plant transformation vector, pMON505, which contained a T-DNA region with a NOS/NPTII/NOS kanamycin resistance gene and a NOS selectable marker gene identical to pMON546, but without the CaMV/EPSPS gene.
Within 10 days after transfer to the media containing glyphosate, actively growing callus tissue appeared on the periphery of all disks on the control plate containing no glyphosate. […] This confirms that the CaMV/EPSPS gene conferred glyphosate resistance upon the transformed cells.

[1] = test system: leaf tissue from transgenic shoots of B. napus; test: Oil seed rape leaf tissue tolerance test on medium with glyphosate; assay type: cell-based, Brassica napus; settings: 0.5 mM glyphosate
Protocol: The four terminal intervals from B. napus plants (growth chamber grown in soil) are surface sterilized in sodium hypochlorite and cut into 5 mm sections. The upper surface of each piece is inoculated with an overnight liquid culture of A. tumefaciens containing the above described transformation vector and helper plasmid pTiT37-SE and incubated for 2 to 3 days on nurse culture plates containing 1/10 MS medium with 1 mg/l BA. The explants are then transferred to MS medium containing 1 mg/l BA, 500 mg/l carbenicillin and 100 mg/l kanamycin. After 3 to 6 weeks, leaf tissue from transgenic shoots that have developed is transferred to the same medium but with 0.5 mM glyphosate instead of the kanamycin to test for tolerance.
Control tissue is prepared using A. tumefaciens cells containing helper plasmid pTiT37-SE and vector pMON200.

flax callus = test: Flax callus resistance to glyphosate; assay type: cell-based; settings: glyphosate between 5.0 and 20.0 mM
Protocol: Flax seeds are surface-sterilized with 70% ethanol, 25% Chlorox and rinsed with sterile distilled water. The seeds are placed on solid MS medium and allowed to germinate in the light for 5-7 days. The hypocotyls are removed aseptically and inoculated with A. tumefaciens cells containing the above-described transformation vector and helper plasmid pTiB6S3-SE or pTiT37-SE and permitted to co-culture for 2 days on MS medium containing 1 mg/l benzylaminopurine, 0.02 mg/l naphthalene acetic acid and 4% sucrose. The hypocotyls are then placed on MS medium supplemented with 400 mg/l kanamycin and 500 mg/l carbenicillin.
Control tissue is prepared using A. tumefaciens cells containing helper plasmid pTiB6S3-SE or pTiT37-SE and vector pMON200.

E. coli 11303 SM-1 = test: Growth of E. coli culture in glyphosate-containing growth medium; assay type: cell-based; settings: mutant E. coli 11303 SM-1, glyphosate 10 mM or higher in growth medium
Protocol: Cells of E. coli ATCC 11303 were transferred to medium A and incubated at 37° C.
This mutant bacterium was designated E. coli 11303 SM-1. The aroA gene encoding EPSPS from this mutant bacterium was isolated as follows.

sunflower plants = test: Sunflower plants sprayed with glyphosate; assay type: in vivo
tobacco leaf fragments = test: Tobacco leaf callus assay on glyphosate; assay type: cell-based, tobacco (Samsun variety); settings: 0.5 mM glyphosate, 10 days
Protocol: Transformed tobacco plants (Samsun variety) were produced and grown by the method described in Example 4, substituting transformed tobacco leaf disks for transformed petunia leaf disks.
Tobacco plants were tested for glyphosate resistance using the method described for tomato plants in Example 5. Tobacco leaf fragments from plants containing vector alone (pMON200) or the pMON546 chimeric EPSPS gene were incubated on callus medium containing 0.5 mM glyphosate.

transgenic canola lines = test: Glyphosate spray test, reproductive scores of transgenic canola (Example 21); assay type: in vivo
Excerpt: Transgenic plants containing the Arabidopsis EPSP synthase gene containing a single glycine to alamine mutation at […] 101 driven by either the FMV promoter or the CaMVe35S promoter were obtained and analyzed for resistance to glyphosate. The transgenic plants containing the Arabidopsis EPSP synthase gene (as described above) directed by the FMV promoter contained pMON996, FIG. 12 and FIG. 13, while those plants containing the enhanced CaMVe35S promoter contained pMON899. These transgenic plants were planted and the seed from the Ro plants harvested, threshed and dried before planting for a glyphosate spray test. The progeny were planted in 4-inch square pots of Metro 350 and three types of slow release fertilizers. A goal of twenty seedlings from each Ro plant is desirable for testing. Germination frequency is usually high but overplanting ensures that twenty seedlings are present. The plants were thinned down by selecting the twenty most vigorous and erect seedlings seven to ten days after planting. A negative control (non-transformed, "Westar" variety) was planted at the same time to maintain quality and display the results. The plants were maintained and grown in a greenhouse environment. A sixteen-hour photoperiod and a temperature of 21° C. (day) and 15° C. (night) was maintained. […]

With `O=C(O)CNCP(=O)(O)O` [glyphosate, N-phosphonomethylglycine] the “callus growth, control disks versus transformed tissue” value (petunia leaf disks; 0.1 mM glyphosate (sodium salt), within 10 days, control pMON505, transformed pMON546) was “little detectable difference between the control disks and the transformed tissue”, the callus growth (petunia leaf disks; control disks (pMON505), 0.25 mM glyphosate (sodium salt)) was “very little growth of callus from control disks” and the callus growth (petunia leaf disks; control disks (pMON505), 0.5 mM glyphosate (sodium salt)) was “no callus growth from the control disks”. The callus growth (petunia leaf disks; transformed disks (pMON546, CaMV/EPSPS), 0.5 mM glyphosate (sodium salt)) was “a significant number of calli grew from the transformed disks”, the callus growth (petunia leaf disks; transformed tissue (pMON546, CaMV/EPSPS), 0.25 mM glyphosate (sodium salt)) was “substantial growth of transformed tissue occurred” and the tissue growth ([1]; transformed (pMON200) and non-transformed controls) was “are inhibited”. For the same molecule, the tissue growth ([1]; transgenic tissue that expresses EPSPS) was “are able to grow in the presence of glyphosate”, the tissue response (flax callus; control tissue (pMON200)) was “bleaches and dies” and the callus resistance (flax callus; selected callus transformed with EPSPS vector) was “demonstrates resistance to glyphosate”. The growth of culture (E. coli 11303 SM-1) was “could grow rapidly”, the “plant tolerance to spray” value (sunflower plants; transformed sunflower plants) was “demonstrate tolerance to glyphosate” and the “plant response to spray” value (sunflower plants; wild type sunflower plants) was “kill wild type plants”. The “callus growth from leaves” value (tobacco leaf fragments; control tobacco leaves (pMON200 vector alone)) was “completely inhibited and showed no signs of callus growth”, the “glyphosate resistance of leaves” value (tobacco leaf fragments; leaves from plants transformed with chimeric petunia EPSPS gene (pMON546)) was “confers glyphosate resistance to tobacco plants” and the “reproductive scores (scale 0-10)” value (transgenic canola lines; 0.28 Kg/ha, 28 days after spraying, three of the seven lines with FMV promoter (pMON996) versus CaMVe35S lines (pMON899), FIG. 14) was “better than any of the scores from lines containing the CaMVe35S promoter (pMON899)”. The “level of glyphosate tolerance” value (transgenic canola lines; transgenic lines containing pMON899 (CaMVe35S promoter) used in FIG. 14) was “highest levels of glyphosate tolerance among 150 lines previously tested”.

— patent US5188642A, “Glyphosate-resistant plants” (priority 1990, dated 1993)
